How the values were obtained:
[1] = test system: TNFα production in RAW 264.7 macrophage cell line; assay: Mouse TNF alpha quantification assay (LPS-stimulated macrophages, ELISA); assay type: cell-based; settings: RAW264.7, RAW 264.7 murine leukemia virus transformed macrophage cell lines, LPS stimulation, read-out: TNF-α % Inhibition at 30 μM
[2] = test system: IL6 production in RAW 264.7 macrophage cell line; assay: Mouse IL6 quantification assay (LPS-stimulated macrophages, ELISA); assay type: cell-based; settings: RAW264.7, RAW 264.7 murine leukemia virus transformed macrophage cell lines, LPS stimulation, read-out: IL-6 % Inhibition at 30 μM

| SMILES | inhibition at 30 µM [1] [%] | inhibition at 30 µM [2] [%] |
| --- | --- | --- |
| COC(=O)C(C)CN(Cc1cc(Br)ccc1[N+](=O)[O-])C1CC1 (centres unmarked) [drawing 2063] | 0 | 26 to 50 |
| CC(C1CC1)N(CC(F)(F)F)C(=O)Cc1ccc(-c2ccccc2)cc1 (centres unmarked) [drawing 2064] | 1 to 25 | 1 to 25 |
| COC(=O)C(C)CN(Cc1ccccc1)c1nc(C(F)(F)F)ccc1C#N (centres unmarked) [drawing 2065] | 0 | 26 to 50 |
| CCN(CC)S(=O)(=O)c1ccc(NCCOC)c(C(=O)NCCSCc2ccc(C)cc2)c1 [drawing 2066] | 26 to 50 | 26 to 50 |
| CSc1nc(C2CC2)cc(C(=O)NCCc2ccc(S(=O)(=O)NC(=O)c3cc(C4CC4)nc(SC)c3C#N)cc2)c1C#N [drawing 2067] | 26 to 50 | 1 to 25 |
| CC(C)C1=C(O)C2(CC2c2ccc(-c3ccccc3)cc2)C(C)CC1 (centres unmarked) [drawing 2068] | 1 to 25 | 0 |
| Cc1cccc(C)c1OCCOC(=O)c1ccccc1SCCOc1c(C)cccc1C [drawing 2069] | 0 | 1 to 25 |
| Oc1nc(-c2ccccn2)nc2c1CCCN2 [drawing 2070] | 1 to 25 | 26 to 50 |
| O=C(COc1ccccc1)N1CCCc2c(O)nc(-c3ccccn3)nc21 [drawing 2071] | 1 to 25 | 76 to 100 |
| COc1ccc(COCC(=O)N2CCCc3c(O)nc(-c4ccccn4)nc32)cc1 [drawing 2072] | 1 to 25 | 51 to 75 |
| COc1ccc(CCC(=O)N2CCCc3c(O)nc(-c4ccccn4)nc32)cc1 [drawing 2073] | 26 to 50 | 76 to 100 |
| CN(CC(=O)N1CCCc2c(O)nc(-c3ccccn3)nc21)S(=O)(=O)c1ccccc1 [drawing 2074] | 0 | 1 to 25 |
| O=C(c1ccc2ccccc2n1)N1CCCc2c(O)nc(-c3ccccn3)nc21 [drawing 2075] | 1 to 25 | 76 to 100 |
| O=C(c1ccn(-c2ccccc2)n1)N1CCCc2c(O)nc(-c3ccccn3)nc21 [drawing 2076] | 26 to 50 | 76 to 100 |
| CS(=O)(=O)N1CCCc2cc(C(=O)N3CCCc4c(O)nc(-c5ccccn5)nc43)ccc21 [drawing 2077] | 1 to 25 | 76 to 100 |
| O=C(c1ccc(=O)[nH]n1)N1CCCc2c(O)nc(-c3ccccn3)nc21 [drawing 2078] | 1 to 25 | 76 to 100 |
| CS(=O)(=O)c1cccc(C(=O)N2CCCc3c(O)nc(-c4ccccn4)nc32)c1 [drawing 2079] | 0 | 51 to 75 |
| COCCCC(=O)N1CCCc2c(O)nc(-c3ccccn3)nc21 [drawing 2080] | 1 to 25 | 76 to 100 |
| O=C(c1cocn1)N1CCCc2c(O)nc(-c3ccccn3)nc21 [drawing 2081] | 1 to 25 | 1 to 25 |
| CS(=O)(=O)CCCC(=O)N1CCCc2c(O)nc(-c3ccccn3)nc21 [drawing 2082] | 0 | 26 to 50 |
| O=S(=O)(CCc1ccccc1)N1CCCc2c(O)nc(-c3ccccn3)nc21 [drawing 2083] | 0 | 26 to 50 |
| O=S(=O)(c1ccccc1)N1CCCc2c(O)nc(-c3ccccn3)nc21 [drawing 2084] | 1 to 25 | 0 |
| O=C(OCCc1ccccc1)N1CCCc2c(O)nc(-c3ccccn3)nc21 [drawing 2085] | 26 to 50 | 76 to 100 |

| SMILES | inhibition at 30 µM [1] [%] | inhibition at 30 µM [2] [%] |
| --- | --- | --- |
| O=C(CC(c1ccccc1)c1ccccc1)N1CCCc2c(O)nc(-c3ccccn3)nc21 [drawing 2086] | 0 | 26 to 50 |
| O=C(c1ccccn1)N1CCCc2c(O)nc(-c3ccccn3)nc21 [drawing 2087] | 1 to 25 | 1 to 25 |
| O=C(CCCc1cccnc1)N1CCCc2c(O)nc(-c3ccccn3)nc21 [drawing 2088] | 1 to 25 | 76 to 100 |
| Nc1nc(O)c2scc(Br)c2n1 [drawing 2089] | 1 to 25 | 1 to 25 |
| COCC1CCN(C(=O)c2csc3c(O)nc(N)nc23)CC1 [drawing 2090] | 1 to 25 | 1 to 25 |
| CCOCCC1CCN(C(=O)c2csc3c(O)nc(N)nc23)CC1 [drawing 2091] | 1 to 25 | 0 |
| COCCCC1CCN(C(=O)c2csc3c(O)nc(N)nc23)CC1 [drawing 2092] | 1 to 25 | 0 |
| Nc1nc(O)c2scc(C(=O)N3CCC(N4CCOCC4)CC3)c2n1 [drawing 2093] | 1 to 25 | 0 |
| Nc1nc(O)c2scc(C(=O)N3CCC(N4CCCC4=O)CC3)c2n1 [drawing 2094] | 0 | 1 to 25 |
| CCOC(=O)NC1CCN(C(=O)c2csc3c(O)nc(N)nc23)CC1 [drawing 2095] | 1 to 25 | 0 |
| Nc1nc(O)c2scc(C(=O)N(CCO)CCOCCO)c2n1 [drawing 2096] | 0 | 1 to 25 |
| Nc1nc(O)c2scc(C(=O)NCCc3cccnc3)c2n1 [drawing 2098] | 1 to 25 | 1 to 25 |
| COc1cc2c(cc1OC)CCN(C(=O)c1csc3c(O)nc(N)nc13)CC2 [drawing 2099] | 1 to 25 | 1 to 25 |
| Oc1nc(-c2ccccn2)nc2c(Br)csc12 [drawing 2100] | 76 to 100 | 76 to 100 |
| CC1CCN(C(=O)c2csc3c(O)nc(-c4ccccn4)nc23)CC1 [drawing 2101] | 0 | 26 to 50 |
| COCC1CCN(C(=O)c2csc3c(O)nc(-c4ccccn4)nc23)CC1 [drawing 2102] | 1 to 25 | 76 to 100 |
| CCOCCC1CCN(C(=O)c2csc3c(O)nc(-c4ccccn4)nc23)CC1 [drawing 2103] | 1 to 25 | 76 to 100 |
| COCCCC1CCN(C(=O)c2csc3c(O)nc(-c4ccccn4)nc23)CC1 [drawing 2104] | 1 to 25 | 51 to 75 |
| O=C(c1csc2c(O)nc(-c3ccccn3)nc12)N1CCC(N2CCOCC2)CC1 [drawing 2105] | 0 | 1 to 25 |
| O=C(c1csc2c(O)nc(-c3ccccn3)nc12)N1CCC(N2CCCC2=O)CC1 [drawing 2106] | 26 to 50 | 1 to 25 |
| O=C(c1csc2c(O)nc(-c3ccccn3)nc12)N1CCN(c2ccncc2)CC1 [drawing 2108] | 0 | 1 to 25 |
| O=C(c1csc2c(O)nc(-c3ccccn3)nc12)N1CCC(c2cccnc2)CC1 [drawing 2109] | 1 to 25 | 76 to 100 |
| CC1(O)CCN(C(=O)c2csc3c(O)nc(-c4ccccn4)nc23)CC1 [drawing 2110] | 0 | 51 to 75 |

| SMILES | inhibition at 30 µM [1] [%] | inhibition at 30 µM [2] [%] |
| --- | --- | --- |
| CC1(N)CCN(C(=O)c2csc3c(O)nc(-c4ccccn4)nc23)CC1 [drawing 2111] | 0 | 1 to 25 |
| CCOC(=O)NC1CCN(C(=O)c2csc3c(O)nc(-c4ccccn4)nc23)CC1 [drawing 2112] | 0 | 51 to 75 |
| COCCOCCN(C)C(=O)c1csc2c(O)nc(-c3ccccn3)nc12 [drawing 2113] | 0 | 26 to 50 |
| CN(CCc1ccncc1)C(=O)c1csc2c(O)nc(-c3ccccn3)nc12 [drawing 2114] | 0 | 51 to 75 |
| O=C(NCCc1cccnc1)c1csc2c(O)nc(-c3ccccn3)nc12 [drawing 2115] | 0 | 26 to 50 |
| O=C(c1csc2c(O)nc(-c3ccccn3)nc12)N1CCc2ccccc2CC1 [drawing 2116] | 0 | 51 to 75 |
| COc1cc2c(cc1OC)CCN(C(=O)c1csc3c(O)nc(-c4ccccn4)nc13)CC2 [drawing 2117] | 1 to 25 | 26 to 50 |
| Nc1nc(O)c2scc(-c3ccccc3)c2n1 [drawing 2118] | 0 | 1 to 25 |
| Nc1nc(O)c2scc(-c3ccccc3Cl)c2n1 [drawing 2119] | 0 | 26 to 50 |
| Oc1nc(-c2ccccn2)nc2c(-c3ccccc3)csc12 [drawing 2120] | 51 to 75 | 76 to 100 |
| Oc1nc(-c2ccccn2)nc2c(-c3ccccc3Cl)csc12 [drawing 2121] | 76 to 100 | 76 to 100 |
| Oc1nc(-c2ccccn2)nc2[nH]cnc12 [drawing 2122] | 76 to 100 | 76 to 100 |
| Oc1nc(-c2ccccn2)nc2c1ncn2-c1ccccc1 [drawing 2123] | 0 | 1 to 25 |
| Oc1nc(-c2ccccn2)nc2c1ncn2-c1ccccn1 [drawing 2124] | 0 | 26 to 50 |
| N#Cc1ccc(CC(=O)Nc2ccnc(-c3ccccn3)n2)cc1 [drawing 2125] | 1 to 25 | 1 to 25 |
| Brc1csc2nc(-c3ccccn3)nc(N3CCOCC3)c12 [drawing 2126] | 0 | 51 to 75 |
| c1ccc(-c2nc(N3CCOCC3)c3ccsc3n2)nc1 [drawing 2127] | 1 to 25 | 1 to 25 |
| Oc1nc(-c2ccccn2)nc2scc(Br)c12 [drawing 2128] | 76 to 100 | 76 to 100 |
| c1ccc(-c2nc(NCC3CCCO3)c3ccsc3n2)nc1 (centres unmarked) [drawing 2129] | 1 to 25 | 51 to 75 |
| CCN(CC)CCC(C)Nc1nc(-c2ccccn2)nc2sccc12 (centres unmarked) [drawing 2130] | 0 | 1 to 25 |
| O=C1CN(c2nc(-c3ccccn3)nc3scc(-c4ccccc4)c23)CCN1CCO [drawing 2131] | 1 to 25 | 1 to 25 |

Reference: patent US10940139B2, “Compounds that interact with the Ras superfamily for the treatment of cancers, inflammatory diseases, rasopathies, and fibrotic disease” (Shy Therapeutics LLC, priority 2017, dated 2021)
